Experimental data taken from US20060040957A1, “BICYCLIC PYRIMIDINE MATRIX METALLOPROTEINASE INHIBITORS” (priority 2001, published 2006).
Counter-ions that a name gives are not always drawn.

Key:
Type in all cases: biochemical
[1] = target: MMP-14CD (catalytic domain of MMP-14) (Homo sapiens, UniProt P50281); assay: Thiopeptolide substrate hydrolysis assay, MMP-14CD; settings: HEPES pH 7.0, 22° C., read-out: IC50 (μM) Versus Certain MMPs: MMP-14 CD
Source text: (§1) The invention compounds of Formula I have been evaluated in standard assays for their ability to inhibit the catalytic activity of various MMP enzymes.
(§2) Thiopeptolide substrates show virtually no decomposition or hydrolysis at or below neutral pH in the absence of a matrix metalloproteinase enzyme.
(§3) Several representative compounds have been evaluated for their ability to inhibit various matrix metalloproteinase enzymes.

[2] = target: T1, MMP-7FL (full length matrilysin) (Homo sapiens, UniProt P09237); assay: Thiopeptolide substrate hydrolysis assay, MMP-7FL; settings: HEPES pH 7.0, 22° C., read-out: IC50 (μM) Versus Certain MMPs: MMP-07 FL
T1 sequence (P09237 95-267): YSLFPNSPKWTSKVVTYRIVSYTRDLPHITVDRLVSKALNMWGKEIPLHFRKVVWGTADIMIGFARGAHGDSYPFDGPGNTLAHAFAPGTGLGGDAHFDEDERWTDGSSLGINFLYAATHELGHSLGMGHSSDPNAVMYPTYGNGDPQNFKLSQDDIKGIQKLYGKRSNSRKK
Source text: as §1, §2, §3

[3] = target: T2, MMP-2FL (full length Gelatinase A) (Homo sapiens, UniProt P08253); assay: Thiopeptolide substrate hydrolysis assay, MMP-2FL; settings: HEPES pH 7.0, 22° C., read-out: IC50 (μM) Versus Certain MMPs: MMP-02 FL
T2 sequence (P08253 110-660): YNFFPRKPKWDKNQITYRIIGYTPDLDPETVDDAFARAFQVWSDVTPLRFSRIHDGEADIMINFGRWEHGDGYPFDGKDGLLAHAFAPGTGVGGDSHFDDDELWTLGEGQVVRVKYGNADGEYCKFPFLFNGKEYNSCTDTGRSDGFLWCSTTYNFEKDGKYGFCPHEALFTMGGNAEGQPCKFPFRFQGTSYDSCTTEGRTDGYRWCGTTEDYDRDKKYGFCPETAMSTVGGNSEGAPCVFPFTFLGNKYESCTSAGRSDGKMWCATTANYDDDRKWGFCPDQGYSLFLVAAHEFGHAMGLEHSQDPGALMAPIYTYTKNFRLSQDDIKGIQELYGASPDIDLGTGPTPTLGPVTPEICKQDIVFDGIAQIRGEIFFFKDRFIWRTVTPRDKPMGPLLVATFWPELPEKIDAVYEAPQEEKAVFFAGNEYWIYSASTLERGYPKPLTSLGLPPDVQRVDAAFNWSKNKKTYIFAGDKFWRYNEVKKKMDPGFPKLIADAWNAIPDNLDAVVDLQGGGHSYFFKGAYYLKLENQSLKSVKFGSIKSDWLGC
Source text: as §1, §2, §3

[4] = target: MMP-9FL (full length Gelatinase B) (Homo sapiens, UniProt P14780); assay: Thiopeptolide substrate hydrolysis assay, MMP-9FL; settings: HEPES pH 7.0, 22° C., read-out: IC50 (μM) Versus Certain MMPs: MMP-09 FL
MMP-9FL (full length Gelatinase B), sequence (P14780 94-707, species assumed): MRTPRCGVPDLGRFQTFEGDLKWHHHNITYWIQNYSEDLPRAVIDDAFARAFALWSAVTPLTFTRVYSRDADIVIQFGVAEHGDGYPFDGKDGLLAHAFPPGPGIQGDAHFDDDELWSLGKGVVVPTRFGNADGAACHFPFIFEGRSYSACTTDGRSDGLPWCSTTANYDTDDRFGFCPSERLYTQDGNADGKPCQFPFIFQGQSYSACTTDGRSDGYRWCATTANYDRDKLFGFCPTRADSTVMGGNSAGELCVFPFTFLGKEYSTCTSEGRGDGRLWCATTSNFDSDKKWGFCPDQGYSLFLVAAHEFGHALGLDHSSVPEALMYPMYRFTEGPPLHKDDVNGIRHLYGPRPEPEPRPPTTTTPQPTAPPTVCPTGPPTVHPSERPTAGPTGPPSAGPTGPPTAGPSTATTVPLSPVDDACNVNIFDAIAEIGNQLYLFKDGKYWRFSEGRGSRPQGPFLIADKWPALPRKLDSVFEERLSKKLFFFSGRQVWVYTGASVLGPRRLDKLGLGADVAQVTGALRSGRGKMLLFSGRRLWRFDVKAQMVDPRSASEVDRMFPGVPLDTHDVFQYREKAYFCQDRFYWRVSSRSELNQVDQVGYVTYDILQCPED
Source text: as §1, §2, §3

SMILES | IC50 [1] [µM] | IC50 [2] [µM] | IC50 [3] [µM] | IC50 [4] [µM]
Cc1c(=O)n(Cc2ccc(S(N)(=O)=O)cc2)c(=O)n2cc(C(=O)NCc3ccncc3)sc12 [Example 84, 8-Methyl-5,7-dioxo-6-(4-sulfamoyl-benzyl)-6,7-dihydro-5H-thiazolo[3,2-c]pyrimidine-2-carboxylic acid(pyridin-4-ylmethyl)-amide hydrochloride] | > 100 | > 100 | > 100 | > 100
Cc1c(=O)n(Cc2ccc(C(=O)OCCN(C)C)cc2)c(=O)n2cc(C(=O)NCc3ccncc3)sc12 [Example 63, 4-{8-Methyl-5,7-dioxo-2-[(pyridin-4-ylmethyl)-carbamoyl]-7H-thiazolo[3,2-c]pyrimidin-6-ylmethyl}-benzoic acid 2-dimethylamino-ethyl ester dihydrochloride] | > 100 | > 100 | > 100 | > 100
O=C(NCc1ccncc1)c1cn2c(=O)n(Cc3ccccc3)c(=O)cc2s1 [Example 9, 6-Benzyl-5,7-dioxo-6,7-dihydro-5H-thiazolo[3,2-c]pyrimidine-2-carboxylic acid(pyridin-4-ylmethyl)-amide hydrochloride] | > 100 | > 100 | > 100 | > 100
Cc1c(=O)n(Cc2ccc(-c3nn[nH]n3)cc2)c(=O)n2cc(C(=O)NCc3ccc(F)cc3)sc12 [Example 75, 8-Methyl-5,7-dioxo-6-[4-(2H-tetrazol-5-yl)-benzyl]-6,7-dihydro-5H-thiazolo[3,2-c]pyrimidine-2-carboxylic acid 4-fluoro-benzylamide] | > 100 | > 100 | > 100 | > 100
Cc1c(=O)n(Cc2ccccc2)c(=O)n2cc(C(=O)NCc3cccnc3)sc12 [Example 44, 6-benzyl-8-methyl-5,7-dioxo-6,7-dihydro-5H-thiazolo[3,2-c]pyrimidine-2-carboxylic acid(pyridin-3-ylmethyl)-amide] | > 100 | > 100 | > 100 | > 30
Cc1c(=O)n(Cc2ccccc2)c(=O)n2cc(C(=O)NCc3ccc(C(F)(F)F)cc3)sc12 [Example 49, 6-Benzyl-8-methyl-5,7-dioxo-6,7-dihydro-5H-thiazolo[3,2-c]pyrimidine-2-carboxylic acid 4-trifluoromethyl-benzylamide] | > 100 | > 100 | > 30 | > 100
Cc1c(=O)n(Cc2ccccc2)c(=O)n2cc(C(=O)NCc3ccc(OC(F)(F)F)cc3)sc12 [Example 51, 6-Benzyl-8-methyl-5,7-dioxo-6,7-dihydro-5H-thiazolo[3,2-c]pyrimidine-2-carboxylic acid 4-trifluoromethoxy-benzylamide] | > 100 | > 30 | > 30 | > 100
Cc1c(=O)n(Cc2ccccc2)c(=O)n2cc(C(=O)NCc3ccncc3)sc12 [Example 36, 6-Benzyl-8-methyl-5,7-dioxo-6,7-dihydro-5H-thiazolo[3,2-c]pyrimidine-2-carboxylic acid(pyridin-4-ylmethyl)-amide hydrochloride] | > 100 | > 100 | > 100 | > 30
O=C(NCc1ccncc1)C1Cn2c(cc(=O)n(Cc3ccccc3)c2=O)S1 (stereo not drawn) [Example 22, 6-Benzyl-5,7-dioxo-2,3,6,7-tetrahydro-5H-thiazolo[3,2-c]pyrimidine-2-carboxylic acid(pyridin-4-ylmethyl)-amide] | > 100 | > 100 | > 100 | > 100
O=C(OCc1ccccc1)C1C[S+]([O-])c2cc(=O)n(Cc3ccccc3)c(=O)n21 (stereo not drawn) [Example 23, 6-Benzyl-1,5,7-trioxo-1,2,3,5,6,7-hexahydro-114-thiazolo[3,2-c]pyrimidine-3-carboxylic acid benzyl ester] | > 100 | > 100 | > 100 | > 100

Other lines, results leading:

IC50 [1] [µM] | IC50 [2] [µM] | IC50 [3] [µM] | IC50 [4] [µM] | SMILES
> 30 | > 30 | > 30 | > 30 | COc1cccc(CNC(=O)c2cn3c(=O)n(Cc4ccccc4)c(=O)c(C)c3s2)c1 [Example 109, 6-Benzyl-8-methyl-5,7-dioxo-6,7-dihydro-5H-thiazolo[3,2-c]pyrimidine-2-carboxylic acid 3-methoxy-benzylamide]
> 100 | 31 | > 30 | > 100 | Cc1c(=O)n(Cc2ccccc2)c(=O)n2cc(C(=O)NCc3ccc(Cl)cc3)sc12 [Example 50, 6-Benzyl-8-methyl-5,7-dioxo-6,7-dihydro-5H-thiazolo[3,2-c]pyrimidine-2-carboxylic acid 4-chloro-benzylamide]
> 30 | > 30 | > 100 | > 100 | COc1ccc(CNC(=O)c2cn3c(=O)n(Cc4ccccc4)c(=O)c(C=O)c3s2)cc1 [Example 32, 6-Benzyl-8-formyl-5,7-dioxo-6,7-dihydro-5H-thiazolo[3,2-c]pyrimidine-2-carboxylic acid 4-methoxy-benzylamide]
> 30 | > 30 | > 30 | > 30 | Cc1c(=O)n(Cc2ccc3cc(F)ccc3n2)c(=O)n2cc(C(=O)NCc3ccc(F)cc3)sc12 [Example 77, 6-(6-Fluoro-quinolin-2-ylmethyl)-8-methyl-5,7-dioxo-6,7-dihydro-5H-thiazolo[3,2-c]pyrimidine-2-carboxylic acid 4-fluoro-benzylamide]
> 30 | 21 | > 100 | > 30 | Cc1c(=O)n(Cc2ccccc2)c(=O)n2cc(C(=O)NCc3cccc(F)c3)sc12 [Example 10, 6-Benzyl-8-methyl-5,7-dioxo-6,7-dihydro-5H-thiazolo[3,2-c]pyrimidine-2-carboxylic acid 3-fluoro-benzylamide]
> 30 | > 100 | > 100 | > 100 | Cc1c(=O)n(Cc2ccc(C(=O)N3CCOCC3)cc2)c(=O)n2cc(C(=O)NCc3ccncc3)sc12 [Example 73, 8-Methyl-6-[4-(morpholine-4-carbonyl)-benzyl]-5,7-dioxo-6,7-dihydro-5H-thiazolo[3,2-c]pyrimidine-2-carboxylic acid(pyridin-4-ylmethyl)-amide hydrochloride]
> 30 | > 30 | > 30 | > 30 | Cc1c(=O)n(Cc2cccc(C#N)c2)c(=O)n2cc(C(=O)NCc3ccncc3)sc12 [Example 82, 6-(3-Cyano-benzyl)-8-methyl-5,7-dioxo-6,7-dihydro-5H-thiazolo[3,2-c]pyrimidine-2-carboxylic acid(pyridin-4-ylmethyl)-amide hydrochloride]
> 30 | > 30 | > 30 | > 30 | Cc1c(=O)n(Cc2ccc(C(=O)N3CCOCC3)cc2)c(=O)n2cc(C(=O)NCc3ccc(F)cc3)sc12 [Example 76, 8-Methyl-6-[4-(morpholine-4-carbonyl)-benzyl]-5,7-dioxo-6,7-dihydro-5H-thiazolo[3,2-c]pyrimidine-2-carboxylic acid 4-fluoro-benzylamide]
> 30 | > 30 | > 30 | > 30 | Cc1c(=O)n(Cc2ccccc2)c(=O)n2cc(C(=O)NCc3ccc(F)cc3)sc12 [Example 30, 6-Benzyl-8-methyl-5,7-dioxo-6,7-dihydro-5H-thiazolo[3,2-c]pyrimidine-2-carboxylic acid 4-fluoro-benzylamide]
> 30 | > 30 | > 30 | > 30 | Cc1c(=O)n(Cc2ccc(F)cc2)c(=O)n2cc(C(=O)NCc3ccncc3)sc12 [Example 70, 6-(4-Fluoro-benzyl)-8-methyl-5,7-dioxo-6,7-dihydro-5H-thiazolo[3,2-c]pyrimidine-2-carboxylic acid(pyridin-4-ylmethyl)-amide hydrochloride]
> 30 | > 30 | > 30 | > 30 | Cc1c(=O)n(Cc2ccc(Br)cc2)c(=O)n2cc(C(=O)NCc3ccncc3)sc12 [Example 71, 6-(4-Bromo-benzyl)-8-methyl-5,7-dioxo-6,7-dihydro-5H-thiazolo[3,2-c]pyrimidine-2-carboxylic acid(pyridin-4-ylmethyl)-amide hydrochloride]
